Laboratory results reported in the kinase profiling compilation of Christmann-Franck et al. (2016).

Assays:
Test in all cases: radiometric filter-binding kinase assay
[1] = system: AKT1 (human), P31749 [S473D]
AURKA (human) = AURKA (human) (UniProt O14965)
BRSK1 (human) = BRSK1 (human) (UniProt Q8TDC3)
BRSK2 (human) = BRSK2 (human) (UniProt Q8IWQ3)
BTK (human) = BTK (human) (UniProt Q06187)
CaMK1 (human) = CaMK1 (human) (UniProt Q14012)
DYRK2 (human) = DYRK2 (human) (UniProt Q92630)
DYRK3 (human) = DYRK3 (human) (UniProt O43781)
EPHA2 (human) = EPHA2 (human) (UniProt P29317)
EPHB1 (human) = EPHB1 (human) (UniProt P54762)
EPHB2 (human) = EPHB2 (human) (UniProt P29323)
EPHB4 (human) = EPHB4 (human) (UniProt P54760)
FLT1 (human) = FLT1 (human) (UniProt P17948)
Sequence of FLT1 (human) (P17948 whole entry, looked up): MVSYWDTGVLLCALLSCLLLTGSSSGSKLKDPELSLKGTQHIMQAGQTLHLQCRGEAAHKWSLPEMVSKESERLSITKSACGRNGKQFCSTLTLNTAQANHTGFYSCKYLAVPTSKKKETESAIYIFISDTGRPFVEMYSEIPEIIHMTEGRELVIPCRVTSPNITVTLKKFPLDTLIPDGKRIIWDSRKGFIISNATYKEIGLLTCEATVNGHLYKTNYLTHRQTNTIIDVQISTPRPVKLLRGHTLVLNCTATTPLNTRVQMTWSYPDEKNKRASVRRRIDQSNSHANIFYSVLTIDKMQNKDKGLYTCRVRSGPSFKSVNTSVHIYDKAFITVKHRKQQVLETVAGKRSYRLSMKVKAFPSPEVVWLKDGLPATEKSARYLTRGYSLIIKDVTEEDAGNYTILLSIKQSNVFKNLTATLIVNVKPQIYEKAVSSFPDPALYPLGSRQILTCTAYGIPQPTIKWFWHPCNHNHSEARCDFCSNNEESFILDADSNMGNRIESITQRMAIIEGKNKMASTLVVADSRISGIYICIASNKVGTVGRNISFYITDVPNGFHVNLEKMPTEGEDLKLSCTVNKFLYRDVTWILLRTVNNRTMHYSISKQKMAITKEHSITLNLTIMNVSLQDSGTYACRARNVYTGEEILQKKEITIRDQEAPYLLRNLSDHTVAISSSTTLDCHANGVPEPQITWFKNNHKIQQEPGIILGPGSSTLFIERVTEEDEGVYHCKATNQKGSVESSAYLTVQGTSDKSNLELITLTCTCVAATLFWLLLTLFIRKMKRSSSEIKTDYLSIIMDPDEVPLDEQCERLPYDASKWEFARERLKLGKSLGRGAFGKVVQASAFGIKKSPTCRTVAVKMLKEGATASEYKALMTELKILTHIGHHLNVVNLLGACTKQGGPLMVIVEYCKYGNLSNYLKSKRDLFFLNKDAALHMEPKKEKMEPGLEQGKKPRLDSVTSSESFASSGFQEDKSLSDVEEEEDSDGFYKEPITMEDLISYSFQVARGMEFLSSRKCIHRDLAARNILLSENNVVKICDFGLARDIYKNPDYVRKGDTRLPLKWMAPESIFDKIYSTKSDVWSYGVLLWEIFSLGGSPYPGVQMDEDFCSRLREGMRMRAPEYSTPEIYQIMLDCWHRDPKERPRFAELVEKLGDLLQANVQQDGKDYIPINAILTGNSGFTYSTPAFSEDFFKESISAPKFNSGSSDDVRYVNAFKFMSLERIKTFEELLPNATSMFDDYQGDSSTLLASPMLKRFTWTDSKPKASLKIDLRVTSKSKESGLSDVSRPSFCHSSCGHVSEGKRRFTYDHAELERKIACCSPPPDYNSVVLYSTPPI

GCK (human) = GCK (human) (UniProt Q12851)
Sequence of GCK (human) (Q12851 whole entry, looked up): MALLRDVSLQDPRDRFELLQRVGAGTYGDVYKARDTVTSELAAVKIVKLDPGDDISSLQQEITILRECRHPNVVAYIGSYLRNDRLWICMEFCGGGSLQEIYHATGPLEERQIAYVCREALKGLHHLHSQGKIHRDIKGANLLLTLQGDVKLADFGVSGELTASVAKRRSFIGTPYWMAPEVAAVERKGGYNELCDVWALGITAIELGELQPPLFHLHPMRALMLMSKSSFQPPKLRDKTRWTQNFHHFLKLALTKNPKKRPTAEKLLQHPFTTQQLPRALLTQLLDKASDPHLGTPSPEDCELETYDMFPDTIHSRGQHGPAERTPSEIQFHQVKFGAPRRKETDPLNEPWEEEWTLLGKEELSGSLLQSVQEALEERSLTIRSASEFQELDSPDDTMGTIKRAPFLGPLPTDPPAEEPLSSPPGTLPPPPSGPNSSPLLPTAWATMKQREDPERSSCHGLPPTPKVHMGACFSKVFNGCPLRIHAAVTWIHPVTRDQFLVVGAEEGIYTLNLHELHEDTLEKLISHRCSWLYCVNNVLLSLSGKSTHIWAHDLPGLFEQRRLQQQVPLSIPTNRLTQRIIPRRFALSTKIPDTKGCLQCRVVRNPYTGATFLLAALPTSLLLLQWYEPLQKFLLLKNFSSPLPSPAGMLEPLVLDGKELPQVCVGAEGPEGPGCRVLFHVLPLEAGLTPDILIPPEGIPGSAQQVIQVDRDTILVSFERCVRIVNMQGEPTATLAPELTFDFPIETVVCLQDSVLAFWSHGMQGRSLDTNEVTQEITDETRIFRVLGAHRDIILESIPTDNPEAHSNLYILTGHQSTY

HIPK1 (human) = HIPK1 (human) (UniProt Q86Z02)
HIPK2 (human) = HIPK2 (human) (UniProt Q9H2X6)
INSR (human) = INSR (human) (UniProt P06213)
JAK2 JH1 JH2 (human) = JAK2 JH1 JH2 (human) (UniProt O60674)
MAP2K1 (human) = MAP2K1 (human) (UniProt Q02750)
MAP3K1 (human) = MAP3K1 (human) (UniProt Q13233)
MAP3K11 (human) = MAP3K11 (human) (UniProt Q16584)
Sequence of MAP3K11 (human) (Q16584 whole entry, looked up): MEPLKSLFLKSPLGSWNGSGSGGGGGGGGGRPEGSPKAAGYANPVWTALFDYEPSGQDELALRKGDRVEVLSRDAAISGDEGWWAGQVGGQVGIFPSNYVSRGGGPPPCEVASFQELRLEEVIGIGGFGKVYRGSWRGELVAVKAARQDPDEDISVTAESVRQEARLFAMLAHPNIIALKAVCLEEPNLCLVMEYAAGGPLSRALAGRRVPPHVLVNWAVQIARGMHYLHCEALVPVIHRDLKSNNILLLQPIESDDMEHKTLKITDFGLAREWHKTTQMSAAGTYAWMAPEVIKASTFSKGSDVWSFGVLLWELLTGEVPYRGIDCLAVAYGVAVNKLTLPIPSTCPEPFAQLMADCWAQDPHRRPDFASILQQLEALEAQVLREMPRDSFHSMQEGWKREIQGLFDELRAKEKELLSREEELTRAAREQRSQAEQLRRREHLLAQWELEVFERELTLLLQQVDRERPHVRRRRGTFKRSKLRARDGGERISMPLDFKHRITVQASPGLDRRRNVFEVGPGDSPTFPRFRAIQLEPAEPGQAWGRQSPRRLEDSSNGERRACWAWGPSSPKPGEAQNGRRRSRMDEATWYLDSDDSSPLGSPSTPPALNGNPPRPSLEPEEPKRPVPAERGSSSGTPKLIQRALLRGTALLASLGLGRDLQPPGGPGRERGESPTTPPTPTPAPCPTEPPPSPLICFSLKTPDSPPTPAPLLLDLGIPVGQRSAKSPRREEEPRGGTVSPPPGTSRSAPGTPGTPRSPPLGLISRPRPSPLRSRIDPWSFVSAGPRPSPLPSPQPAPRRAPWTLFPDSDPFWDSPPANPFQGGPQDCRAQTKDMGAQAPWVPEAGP

MAP3K5 (human) = MAP3K5 (human) (UniProt Q99683)
MAPK10 (human) = MAPK10 (human) (UniProt P53779)
MAPK11 (human) = MAPK11 (human) (UniProt Q15759)
Sequence of MAPK11 (human) (Q15759 whole entry, looked up): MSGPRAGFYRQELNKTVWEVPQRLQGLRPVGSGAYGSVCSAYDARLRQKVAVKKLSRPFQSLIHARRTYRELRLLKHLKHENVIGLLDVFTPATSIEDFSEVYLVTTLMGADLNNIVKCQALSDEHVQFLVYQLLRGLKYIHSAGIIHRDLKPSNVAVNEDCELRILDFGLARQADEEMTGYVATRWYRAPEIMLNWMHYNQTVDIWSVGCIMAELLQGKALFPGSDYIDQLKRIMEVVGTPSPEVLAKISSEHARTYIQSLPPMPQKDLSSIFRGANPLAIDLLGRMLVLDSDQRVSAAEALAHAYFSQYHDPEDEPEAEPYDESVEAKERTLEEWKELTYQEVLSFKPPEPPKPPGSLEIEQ

MAPK8 (human) = MAPK8 (human) (UniProt P45983)
MAPK9 (human) = MAPK9 (human) (UniProt P45984)
MAPKAPK5 (human) = MAPKAPK5 (human) (UniProt Q8IW41)
MARK3 (human) = MARK3 (human) (UniProt P27448)
PIM1 (human) = PIM1 (human) (UniProt P11309)
Sequence of PIM1 (human) (P11309 whole entry, looked up): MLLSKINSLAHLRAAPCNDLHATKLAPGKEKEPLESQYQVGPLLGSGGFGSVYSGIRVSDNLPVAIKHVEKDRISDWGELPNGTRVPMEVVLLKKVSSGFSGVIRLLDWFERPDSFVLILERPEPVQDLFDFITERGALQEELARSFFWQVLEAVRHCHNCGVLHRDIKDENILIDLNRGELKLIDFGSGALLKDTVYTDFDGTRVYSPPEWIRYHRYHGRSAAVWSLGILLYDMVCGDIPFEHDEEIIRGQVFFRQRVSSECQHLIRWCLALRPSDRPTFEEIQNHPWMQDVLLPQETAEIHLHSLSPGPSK

PRKCA (human) = PRKCA (human) (UniProt P17252)
[2] = system: RPS6KB1 (human), P23443 [T412E]
STK3 (human) = STK3 (human) (UniProt Q13188)
SYK (human) = SYK (human) (UniProt P43405)
TAOK1 (human) = TAOK1 (human) (UniProt Q7L7X3)
TBK1 (human) = TBK1 (human) (UniProt Q9UHD2)
YES1 (human) = YES1 (human) (UniProt P07947)

Sequence of BRSK1 (human) (Q8TDC3 whole entry, looked up): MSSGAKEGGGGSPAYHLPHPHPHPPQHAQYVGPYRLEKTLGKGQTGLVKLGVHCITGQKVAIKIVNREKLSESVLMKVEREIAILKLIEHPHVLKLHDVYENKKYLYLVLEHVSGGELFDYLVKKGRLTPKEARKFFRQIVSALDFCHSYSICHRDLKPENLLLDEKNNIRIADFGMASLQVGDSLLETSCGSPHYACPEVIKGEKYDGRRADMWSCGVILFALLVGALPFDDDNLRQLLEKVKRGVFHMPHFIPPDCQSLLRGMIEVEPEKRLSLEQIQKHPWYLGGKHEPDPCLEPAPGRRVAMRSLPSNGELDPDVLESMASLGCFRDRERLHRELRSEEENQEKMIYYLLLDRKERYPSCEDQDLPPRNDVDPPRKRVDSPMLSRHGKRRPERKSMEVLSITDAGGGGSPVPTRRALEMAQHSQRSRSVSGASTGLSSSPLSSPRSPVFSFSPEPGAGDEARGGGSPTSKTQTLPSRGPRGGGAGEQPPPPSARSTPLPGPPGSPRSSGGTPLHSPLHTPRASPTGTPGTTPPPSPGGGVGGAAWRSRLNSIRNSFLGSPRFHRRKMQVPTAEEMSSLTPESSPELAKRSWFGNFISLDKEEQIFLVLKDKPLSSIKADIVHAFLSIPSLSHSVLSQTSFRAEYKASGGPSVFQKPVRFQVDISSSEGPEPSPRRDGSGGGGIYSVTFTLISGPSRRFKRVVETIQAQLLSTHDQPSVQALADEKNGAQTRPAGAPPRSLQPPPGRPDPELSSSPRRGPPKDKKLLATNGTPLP
Sequence of DYRK2 (human) (Q92630 whole entry, looked up): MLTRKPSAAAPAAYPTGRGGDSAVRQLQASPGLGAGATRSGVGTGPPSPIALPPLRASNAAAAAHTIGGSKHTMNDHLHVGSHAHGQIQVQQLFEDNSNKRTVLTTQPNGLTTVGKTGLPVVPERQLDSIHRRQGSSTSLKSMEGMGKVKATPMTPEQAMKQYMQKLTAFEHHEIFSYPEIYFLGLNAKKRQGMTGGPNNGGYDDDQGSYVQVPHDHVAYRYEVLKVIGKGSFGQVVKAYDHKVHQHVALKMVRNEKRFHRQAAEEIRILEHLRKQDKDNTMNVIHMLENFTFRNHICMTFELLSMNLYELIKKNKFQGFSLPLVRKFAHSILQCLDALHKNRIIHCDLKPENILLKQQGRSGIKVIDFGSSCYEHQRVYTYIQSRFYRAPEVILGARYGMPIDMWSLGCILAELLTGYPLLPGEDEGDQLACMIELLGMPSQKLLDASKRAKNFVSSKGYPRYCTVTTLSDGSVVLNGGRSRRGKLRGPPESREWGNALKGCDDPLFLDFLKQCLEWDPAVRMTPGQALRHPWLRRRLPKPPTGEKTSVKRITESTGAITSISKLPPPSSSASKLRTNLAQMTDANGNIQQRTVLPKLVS

Compound: O=C(Nc1nc2cc(C(F)(F)F)cc(NC3CC3)n2n1)c1cccnc1
- residual activity ([1]; compound 0.01 µM): 97%
- residual activity ([1]; compound 0.1 µM): 95%
- residual activity ([1]; compound 1.0 µM): 104%
- residual activity (AURKA (human); compound 0.01 µM): 108%
- residual activity (AURKA (human); compound 0.1 µM): 128%
- residual activity (AURKA (human); compound 1.0 µM): 96%
- residual activity (BRSK1 (human); compound 0.01 µM): 102%
- residual activity (BRSK1 (human); compound 0.1 µM): 90%
- residual activity (BRSK1 (human); compound 1.0 µM): 95%
- residual activity (BRSK2 (human); compound 0.01 µM): 116%
- residual activity (BRSK2 (human); compound 0.1 µM): 116%
- residual activity (BRSK2 (human); compound 1.0 µM): 109%
- residual activity (BTK (human); compound 0.01 µM): 108%
- residual activity (BTK (human); compound 0.1 µM): 103%
- residual activity (BTK (human); compound 1.0 µM): 101%
- residual activity (CaMK1 (human); compound 0.01 µM): 116%
- residual activity (CaMK1 (human); compound 0.1 µM): 128%
- residual activity (CaMK1 (human); compound 1.0 µM): 109%
- residual activity (DYRK2 (human); compound 0.01 µM): 104%
- residual activity (DYRK2 (human); compound 0.1 µM): 92%
- residual activity (DYRK2 (human); compound 1.0 µM): 90%
- residual activity (DYRK3 (human); compound 0.01 µM): 92%
- residual activity (DYRK3 (human); compound 0.1 µM): 119%
- residual activity (DYRK3 (human); compound 1.0 µM): 91%
- residual activity (EPHA2 (human); compound 0.01 µM): 95%
- residual activity (EPHA2 (human); compound 0.1 µM): 93%
- residual activity (EPHA2 (human); compound 1.0 µM): 100%
- residual activity (EPHB1 (human); compound 0.01 µM): 106%
- residual activity (EPHB1 (human); compound 0.1 µM): 120%
- residual activity (EPHB1 (human); compound 1.0 µM): 94%
- residual activity (EPHB2 (human); compound 0.1 µM): 108%
- residual activity (EPHB2 (human); compound 1.0 µM): 95%
- residual activity (EPHB4 (human); compound 0.01 µM): 106%
- residual activity (EPHB4 (human); compound 0.1 µM): 104%
- residual activity (EPHB4 (human); compound 1.0 µM): 96%
- residual activity (FLT1 (human); compound 0.01 µM): 109%
- residual activity (FLT1 (human); compound 0.1 µM): 88%
- residual activity (FLT1 (human); compound 1.0 µM): 108%
- residual activity (GCK (human); compound 0.01 µM): 112%
- residual activity (GCK (human); compound 0.1 µM): 103%
- residual activity (GCK (human); compound 1.0 µM): 108%
- residual activity (HIPK1 (human); compound 0.01 µM): 96%
- residual activity (HIPK1 (human); compound 0.1 µM): 96%
- residual activity (HIPK1 (human); compound 1.0 µM): 92%
- residual activity (HIPK2 (human); compound 0.01 µM): 100%
- residual activity (HIPK2 (human); compound 0.1 µM): 116%
- residual activity (HIPK2 (human); compound 1.0 µM): 105%
- residual activity (INSR (human); compound 0.01 µM): 107%
- residual activity (INSR (human); compound 1.0 µM): 100%
- residual activity (JAK2 JH1 JH2 (human); compound 0.01 µM): 114%
- residual activity (JAK2 JH1 JH2 (human); compound 0.1 µM): 100%
- residual activity (JAK2 JH1 JH2 (human); compound 1.0 µM): 100%
- residual activity (MAP2K1 (human); compound 0.01 µM): 72%
- residual activity (MAP2K1 (human); compound 0.1 µM): 76%
- residual activity (MAP2K1 (human); compound 1.0 µM): 61%
- residual activity (MAP3K1 (human); compound 0.01 µM): 97%
- residual activity (MAP3K1 (human); compound 0.1 µM): 108%
- residual activity (MAP3K1 (human); compound 1.0 µM): 91%
- residual activity (MAP3K11 (human); compound 0.01 µM): 88%
- residual activity (MAP3K11 (human); compound 0.1 µM): 104%
- residual activity (MAP3K11 (human); compound 1.0 µM): 87%
- residual activity (MAP3K5 (human); compound 0.01 µM): 98%
- residual activity (MAP3K5 (human); compound 0.1 µM): 54%
- residual activity (MAP3K5 (human); compound 1.0 µM): 11%
- residual activity (MAPK10 (human); compound 0.01 µM): 85%
- residual activity (MAPK10 (human); compound 0.1 µM): 88%
- residual activity (MAPK10 (human); compound 1.0 µM): 79%
- residual activity (MAPK11 (human); compound 0.01 µM): 106%
- residual activity (MAPK11 (human); compound 0.1 µM): 121%
- residual activity (MAPK11 (human); compound 1.0 µM): 107%
- residual activity (MAPK8 (human); compound 0.01 µM): 87%
- residual activity (MAPK8 (human); compound 0.1 µM): 93%
- residual activity (MAPK8 (human); compound 1.0 µM): 91%
- residual activity (MAPK9 (human); compound 0.01 µM): 89%
- residual activity (MAPK9 (human); compound 0.1 µM): 84%
- residual activity (MAPK9 (human); compound 1.0 µM): 90%
- residual activity (MAPKAPK5 (human); compound 0.01 µM): 97%
- residual activity (MAPKAPK5 (human); compound 0.1 µM): 112%
- residual activity (MAPKAPK5 (human); compound 1.0 µM): 98%
- residual activity (MARK3 (human); compound 0.01 µM): 83%
- residual activity (MARK3 (human); compound 0.1 µM): 87%
- residual activity (MARK3 (human); compound 1.0 µM): 86%
- residual activity (PIM1 (human); compound 0.01 µM): 104%
- residual activity (PIM1 (human); compound 0.1 µM): 96%
- residual activity (PIM1 (human); compound 1.0 µM): 98%
- residual activity (PRKCA (human); compound 0.01 µM): 87%
- residual activity (PRKCA (human); compound 0.1 µM): 89%
- residual activity (PRKCA (human); compound 1.0 µM): 94%
- residual activity ([2]; compound 0.01 µM): 125%
- residual activity ([2]; compound 0.1 µM): 104%
- residual activity ([2]; compound 1.0 µM): 103%
- residual activity (STK3 (human); compound 0.01 µM): 99%
- residual activity (STK3 (human); compound 0.1 µM): 116%
- residual activity (STK3 (human); compound 1.0 µM): 93%
- residual activity (SYK (human); compound 0.01 µM): 107%
- residual activity (SYK (human); compound 0.1 µM): 99%
- residual activity (TAOK1 (human); compound 0.01 µM): 91%
- residual activity (TAOK1 (human); compound 0.1 µM): 101%
- residual activity (TAOK1 (human); compound 1.0 µM): 105%
- residual activity (TBK1 (human); compound 0.01 µM): 99%
- residual activity (TBK1 (human); compound 0.1 µM): 101%
- residual activity (TBK1 (human); compound 1.0 µM): 102%
- residual activity (YES1 (human); compound 0.01 µM): 81%
- residual activity (YES1 (human); compound 0.1 µM): 87%
- residual activity (YES1 (human); compound 1.0 µM): 74%
